We go through 11 compounds from ChEMBL document CHEMBL5465560, “Selectivity Literature for EUbOPEN Chemogenomic Library” (2024).

Test [1] deals with Dual specificity protein kinase CLK3 (Homo sapiens, UniProt P49761). Description: Selectivity interaction (Kinase panel (Z-LYTE Assay)) EUB0001632a CLK3. The conditions noted are these: at 10 µM.
The target in test [2] is Tyrosine-protein kinase ABL1 (Homo sapiens, UniProt P00519). Put plainly: Selectivity interaction (Kinase panel (KiNativ target engagement assay in Jurkat cells)) EUB0001635a ABL1. The conditions noted are these: Selectivity number of off-targets 0.0, Selectivity number of targets 233.0, Source Knowledge https://www.sciencedirect.com/science/article/pii/S2451945619300674?via%3Dihub, at 1 µM. It counts as cell-based.

For test [3], the target named is Tyrosine-protein kinase JAK1 (Homo sapiens, UniProt P23458). Description: Selectivity interaction (Ambit KINOMEscan and KiNATiv profiling in Jurkat cells) EUB0000090b JAK1. It counts as cell-based. Particulars: at 1 µM.
For test [4], the target named is RAC-gamma serine/threonine-protein kinase (Homo sapiens, UniProt Q9Y243). Description: Selectivity interaction (KinomeScan (DiscoverX)) EUB0000607a AKT3. The conditions noted are these: at 10 µM.
For test [5], the target named is T1, Serine/threonine-protein kinase ULK1 (Homo sapiens) (UniProt O75385).
T1 sequence (whole entry): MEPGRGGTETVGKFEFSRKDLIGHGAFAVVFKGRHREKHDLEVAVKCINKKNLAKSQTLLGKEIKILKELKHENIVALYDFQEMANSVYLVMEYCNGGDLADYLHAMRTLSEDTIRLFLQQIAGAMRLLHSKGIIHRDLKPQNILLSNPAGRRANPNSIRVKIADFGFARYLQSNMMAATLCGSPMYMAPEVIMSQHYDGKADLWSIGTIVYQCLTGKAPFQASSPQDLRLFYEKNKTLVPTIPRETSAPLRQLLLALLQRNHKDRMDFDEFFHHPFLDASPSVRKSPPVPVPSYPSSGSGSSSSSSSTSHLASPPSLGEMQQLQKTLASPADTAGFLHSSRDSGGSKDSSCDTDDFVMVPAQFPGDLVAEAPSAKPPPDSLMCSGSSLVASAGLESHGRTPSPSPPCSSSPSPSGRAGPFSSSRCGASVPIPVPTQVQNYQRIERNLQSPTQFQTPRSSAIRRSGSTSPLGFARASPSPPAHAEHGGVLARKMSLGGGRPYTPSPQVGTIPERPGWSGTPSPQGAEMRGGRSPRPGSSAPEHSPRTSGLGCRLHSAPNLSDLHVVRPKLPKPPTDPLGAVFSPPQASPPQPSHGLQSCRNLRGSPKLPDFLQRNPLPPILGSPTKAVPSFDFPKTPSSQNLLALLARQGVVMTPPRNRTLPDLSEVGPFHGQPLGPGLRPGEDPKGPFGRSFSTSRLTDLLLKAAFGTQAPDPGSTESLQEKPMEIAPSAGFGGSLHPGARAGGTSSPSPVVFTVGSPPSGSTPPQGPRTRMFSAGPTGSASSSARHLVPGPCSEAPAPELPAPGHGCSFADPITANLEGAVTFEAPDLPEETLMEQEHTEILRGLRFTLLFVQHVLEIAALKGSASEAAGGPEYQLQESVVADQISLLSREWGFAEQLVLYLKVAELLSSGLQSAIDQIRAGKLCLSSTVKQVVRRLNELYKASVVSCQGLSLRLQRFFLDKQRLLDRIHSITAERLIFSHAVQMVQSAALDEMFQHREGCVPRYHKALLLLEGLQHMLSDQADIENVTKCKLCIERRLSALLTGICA
Put plainly: Selectivity interaction (KinomeScan (DiscoverX)) EUB0001079a ULK1. Particulars: at 1 µM.

Test [6] concerns the target Macrophage colony-stimulating factor 1 receptor (Homo sapiens) (UniProt P07333). Put plainly: Selectivity interaction (KinaseProfiler screening (Millipore)) EUB0000601a CSF1R. Particulars: at 3 µM.
The target of test [7] is Serine/threonine-protein kinase Nek7 (Homo sapiens) (UniProt Q8TDX7). Description: Selectivity interaction (ActivX KiNativ screen (ex vivo kinase selectivity in human PBMCs)) EUB0001619a NEK7. It counts as cell-based. The conditions noted are these: PBMC, at 1 µM.
Test [8] deals with T2, NUAK family SNF1-like kinase 2 (Homo sapiens) (UniProt Q9H093).
T2 sequence (whole entry): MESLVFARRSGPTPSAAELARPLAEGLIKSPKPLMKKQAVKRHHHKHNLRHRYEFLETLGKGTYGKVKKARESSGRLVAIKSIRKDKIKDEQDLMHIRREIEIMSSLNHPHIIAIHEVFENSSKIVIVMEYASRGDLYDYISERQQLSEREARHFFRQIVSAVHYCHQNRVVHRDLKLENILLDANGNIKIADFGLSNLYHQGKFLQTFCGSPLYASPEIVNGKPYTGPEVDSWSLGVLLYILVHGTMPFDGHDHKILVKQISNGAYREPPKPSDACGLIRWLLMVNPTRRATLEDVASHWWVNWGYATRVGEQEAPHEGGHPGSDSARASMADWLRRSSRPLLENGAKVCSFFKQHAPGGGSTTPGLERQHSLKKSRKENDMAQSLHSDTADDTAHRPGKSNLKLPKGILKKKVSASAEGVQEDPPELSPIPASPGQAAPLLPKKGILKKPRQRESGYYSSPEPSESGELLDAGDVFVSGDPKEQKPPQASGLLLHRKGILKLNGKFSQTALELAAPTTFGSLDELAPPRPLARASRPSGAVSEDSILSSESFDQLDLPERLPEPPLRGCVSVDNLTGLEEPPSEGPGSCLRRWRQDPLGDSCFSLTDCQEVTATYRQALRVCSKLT
Particulars: at 10 µM.

The target in test [9] is 5-hydroxytryptamine receptor 1B (Homo sapiens) (UniProt P28222). Description: Selectivity interaction (Panel of kinases, GPCRs, ion channels and transporters (enzymatic assay)) EUB0000223bCl HTR1B.
Test [10] addresses T3, Dual specificity mitogen-activated protein kinase kinase 4 (Homo sapiens) (UniProt P45985).
T3 sequence (whole entry): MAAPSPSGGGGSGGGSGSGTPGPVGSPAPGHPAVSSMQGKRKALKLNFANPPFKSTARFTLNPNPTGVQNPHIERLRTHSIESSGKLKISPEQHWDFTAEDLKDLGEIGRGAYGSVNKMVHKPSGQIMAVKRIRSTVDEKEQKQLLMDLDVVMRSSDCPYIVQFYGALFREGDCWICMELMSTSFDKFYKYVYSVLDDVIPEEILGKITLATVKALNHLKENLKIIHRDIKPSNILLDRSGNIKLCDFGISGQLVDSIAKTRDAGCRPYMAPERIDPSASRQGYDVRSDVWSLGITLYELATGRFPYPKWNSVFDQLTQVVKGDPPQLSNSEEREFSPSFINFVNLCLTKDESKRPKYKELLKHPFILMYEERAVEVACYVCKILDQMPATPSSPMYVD
Put plainly: Selectivity interaction (KinomeScan (DiscoverX)) EUB0000045b MAP2K4.

In test [11] the target is Phosphatidylinositol 4-kinase beta (Homo sapiens, UniProt Q9UBF8). Put plainly: Selectivity interaction (KinomeScan (DiscoverX)) EUB0000595a PI4KB. Particulars: at 10 µM.
Phosphatidylinositol 4-kinase beta, sequence (Q9UBF8 2-816 limits assumed): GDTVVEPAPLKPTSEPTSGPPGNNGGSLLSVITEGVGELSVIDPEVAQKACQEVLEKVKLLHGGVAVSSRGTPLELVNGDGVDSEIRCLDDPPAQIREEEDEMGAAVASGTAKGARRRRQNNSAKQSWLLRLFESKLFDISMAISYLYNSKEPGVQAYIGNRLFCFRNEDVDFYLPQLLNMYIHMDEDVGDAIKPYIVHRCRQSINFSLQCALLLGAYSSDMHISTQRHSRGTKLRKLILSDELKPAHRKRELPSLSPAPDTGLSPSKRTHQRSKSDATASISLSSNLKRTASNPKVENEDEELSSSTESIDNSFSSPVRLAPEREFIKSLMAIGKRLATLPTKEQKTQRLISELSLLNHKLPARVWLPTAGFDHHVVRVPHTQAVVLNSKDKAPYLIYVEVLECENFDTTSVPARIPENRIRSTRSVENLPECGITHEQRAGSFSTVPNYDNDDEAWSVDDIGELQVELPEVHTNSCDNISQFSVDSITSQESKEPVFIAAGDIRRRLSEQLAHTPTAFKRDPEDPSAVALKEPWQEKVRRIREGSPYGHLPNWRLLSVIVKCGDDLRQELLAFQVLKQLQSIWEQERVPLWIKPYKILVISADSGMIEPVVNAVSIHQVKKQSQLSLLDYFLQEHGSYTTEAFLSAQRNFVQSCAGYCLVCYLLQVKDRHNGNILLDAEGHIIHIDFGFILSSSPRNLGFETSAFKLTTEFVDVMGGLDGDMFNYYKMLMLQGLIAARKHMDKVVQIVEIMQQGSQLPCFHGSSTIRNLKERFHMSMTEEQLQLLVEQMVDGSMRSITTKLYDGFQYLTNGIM

Tyrosine-protein kinase ABL1, sequence (P00519 whole entry): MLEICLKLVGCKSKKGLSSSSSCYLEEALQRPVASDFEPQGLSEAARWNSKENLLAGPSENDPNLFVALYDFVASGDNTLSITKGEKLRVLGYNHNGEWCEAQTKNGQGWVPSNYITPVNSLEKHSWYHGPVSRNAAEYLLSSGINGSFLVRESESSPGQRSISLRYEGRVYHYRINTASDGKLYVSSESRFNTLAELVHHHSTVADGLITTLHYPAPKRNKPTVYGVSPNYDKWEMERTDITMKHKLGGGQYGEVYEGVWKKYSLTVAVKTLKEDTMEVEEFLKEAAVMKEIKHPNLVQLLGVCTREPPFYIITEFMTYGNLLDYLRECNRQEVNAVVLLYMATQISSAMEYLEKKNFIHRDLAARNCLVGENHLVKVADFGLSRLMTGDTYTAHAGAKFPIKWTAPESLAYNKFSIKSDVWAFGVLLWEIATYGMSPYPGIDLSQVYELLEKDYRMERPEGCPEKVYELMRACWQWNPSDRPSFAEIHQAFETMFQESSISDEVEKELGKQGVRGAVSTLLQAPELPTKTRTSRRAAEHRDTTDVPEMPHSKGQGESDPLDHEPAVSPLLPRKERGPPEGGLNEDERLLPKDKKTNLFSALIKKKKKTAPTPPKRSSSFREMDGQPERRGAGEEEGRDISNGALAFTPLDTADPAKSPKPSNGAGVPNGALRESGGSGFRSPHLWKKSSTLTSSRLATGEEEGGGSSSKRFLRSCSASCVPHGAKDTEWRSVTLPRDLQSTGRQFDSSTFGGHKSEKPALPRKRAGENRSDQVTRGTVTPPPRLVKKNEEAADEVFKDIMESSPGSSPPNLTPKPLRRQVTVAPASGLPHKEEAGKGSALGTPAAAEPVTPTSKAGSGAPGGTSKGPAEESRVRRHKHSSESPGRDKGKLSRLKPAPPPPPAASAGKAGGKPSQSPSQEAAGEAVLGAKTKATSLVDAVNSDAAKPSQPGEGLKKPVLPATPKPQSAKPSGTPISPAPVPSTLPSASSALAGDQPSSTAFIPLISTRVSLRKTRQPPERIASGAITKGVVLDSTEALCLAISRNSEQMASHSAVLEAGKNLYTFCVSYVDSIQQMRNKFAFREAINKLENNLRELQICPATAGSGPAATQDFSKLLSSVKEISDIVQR
Serine/threonine-protein kinase Nek7 (Homo sapiens), sequence (Q8TDX7 whole entry, looked up): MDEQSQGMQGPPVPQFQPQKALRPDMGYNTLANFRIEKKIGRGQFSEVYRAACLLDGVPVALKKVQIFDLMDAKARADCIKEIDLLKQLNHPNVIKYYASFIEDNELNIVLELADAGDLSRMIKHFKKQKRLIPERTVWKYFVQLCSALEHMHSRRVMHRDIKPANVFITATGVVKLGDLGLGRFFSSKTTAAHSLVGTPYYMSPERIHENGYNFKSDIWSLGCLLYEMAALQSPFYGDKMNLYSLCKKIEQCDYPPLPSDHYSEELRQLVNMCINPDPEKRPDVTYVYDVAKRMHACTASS
Dual specificity protein kinase CLK3, sequence (P49761 whole entry, looked up): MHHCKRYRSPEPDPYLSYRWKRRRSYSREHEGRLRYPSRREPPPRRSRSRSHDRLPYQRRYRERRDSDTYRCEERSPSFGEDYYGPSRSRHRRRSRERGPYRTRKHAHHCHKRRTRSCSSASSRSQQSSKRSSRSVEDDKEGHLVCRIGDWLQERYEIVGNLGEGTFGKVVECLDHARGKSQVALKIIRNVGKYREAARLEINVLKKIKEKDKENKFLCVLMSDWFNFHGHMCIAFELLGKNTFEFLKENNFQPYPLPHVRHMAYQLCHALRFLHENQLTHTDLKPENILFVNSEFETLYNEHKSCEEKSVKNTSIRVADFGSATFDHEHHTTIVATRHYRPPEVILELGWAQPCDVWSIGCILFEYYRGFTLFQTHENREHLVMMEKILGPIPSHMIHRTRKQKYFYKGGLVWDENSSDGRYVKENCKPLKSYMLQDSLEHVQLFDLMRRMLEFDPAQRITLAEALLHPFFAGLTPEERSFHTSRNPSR
Tyrosine-protein kinase JAK1, sequence (P23458 whole entry): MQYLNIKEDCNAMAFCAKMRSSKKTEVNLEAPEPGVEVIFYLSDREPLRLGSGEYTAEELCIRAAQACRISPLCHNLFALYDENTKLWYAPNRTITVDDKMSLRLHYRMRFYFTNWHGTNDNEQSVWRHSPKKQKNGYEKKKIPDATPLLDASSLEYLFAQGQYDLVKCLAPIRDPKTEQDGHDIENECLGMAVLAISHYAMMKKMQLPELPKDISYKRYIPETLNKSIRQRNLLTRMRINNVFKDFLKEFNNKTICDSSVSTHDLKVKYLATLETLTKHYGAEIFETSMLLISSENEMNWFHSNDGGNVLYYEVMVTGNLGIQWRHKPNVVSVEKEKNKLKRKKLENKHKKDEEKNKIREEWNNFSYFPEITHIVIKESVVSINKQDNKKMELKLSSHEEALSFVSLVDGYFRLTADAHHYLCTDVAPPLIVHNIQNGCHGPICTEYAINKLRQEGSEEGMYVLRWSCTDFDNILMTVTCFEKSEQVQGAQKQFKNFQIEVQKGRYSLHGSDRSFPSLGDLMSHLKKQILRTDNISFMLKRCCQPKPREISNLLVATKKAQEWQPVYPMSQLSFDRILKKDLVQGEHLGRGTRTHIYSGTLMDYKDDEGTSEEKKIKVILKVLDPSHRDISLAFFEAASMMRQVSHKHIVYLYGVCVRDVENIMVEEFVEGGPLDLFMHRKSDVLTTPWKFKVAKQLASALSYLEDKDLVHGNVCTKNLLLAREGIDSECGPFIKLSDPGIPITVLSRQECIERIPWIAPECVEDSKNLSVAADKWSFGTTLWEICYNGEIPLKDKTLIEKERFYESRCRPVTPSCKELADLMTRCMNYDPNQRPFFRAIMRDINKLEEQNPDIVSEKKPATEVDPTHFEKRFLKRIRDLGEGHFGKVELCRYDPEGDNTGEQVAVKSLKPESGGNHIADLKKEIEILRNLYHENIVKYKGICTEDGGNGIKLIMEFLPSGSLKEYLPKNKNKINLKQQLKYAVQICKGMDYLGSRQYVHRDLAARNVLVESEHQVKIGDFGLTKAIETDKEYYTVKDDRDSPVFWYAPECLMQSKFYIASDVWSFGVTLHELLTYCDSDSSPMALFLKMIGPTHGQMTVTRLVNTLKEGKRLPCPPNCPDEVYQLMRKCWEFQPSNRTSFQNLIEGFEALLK
Macrophage colony-stimulating factor 1 receptor (Homo sapiens), sequence (P07333 whole entry): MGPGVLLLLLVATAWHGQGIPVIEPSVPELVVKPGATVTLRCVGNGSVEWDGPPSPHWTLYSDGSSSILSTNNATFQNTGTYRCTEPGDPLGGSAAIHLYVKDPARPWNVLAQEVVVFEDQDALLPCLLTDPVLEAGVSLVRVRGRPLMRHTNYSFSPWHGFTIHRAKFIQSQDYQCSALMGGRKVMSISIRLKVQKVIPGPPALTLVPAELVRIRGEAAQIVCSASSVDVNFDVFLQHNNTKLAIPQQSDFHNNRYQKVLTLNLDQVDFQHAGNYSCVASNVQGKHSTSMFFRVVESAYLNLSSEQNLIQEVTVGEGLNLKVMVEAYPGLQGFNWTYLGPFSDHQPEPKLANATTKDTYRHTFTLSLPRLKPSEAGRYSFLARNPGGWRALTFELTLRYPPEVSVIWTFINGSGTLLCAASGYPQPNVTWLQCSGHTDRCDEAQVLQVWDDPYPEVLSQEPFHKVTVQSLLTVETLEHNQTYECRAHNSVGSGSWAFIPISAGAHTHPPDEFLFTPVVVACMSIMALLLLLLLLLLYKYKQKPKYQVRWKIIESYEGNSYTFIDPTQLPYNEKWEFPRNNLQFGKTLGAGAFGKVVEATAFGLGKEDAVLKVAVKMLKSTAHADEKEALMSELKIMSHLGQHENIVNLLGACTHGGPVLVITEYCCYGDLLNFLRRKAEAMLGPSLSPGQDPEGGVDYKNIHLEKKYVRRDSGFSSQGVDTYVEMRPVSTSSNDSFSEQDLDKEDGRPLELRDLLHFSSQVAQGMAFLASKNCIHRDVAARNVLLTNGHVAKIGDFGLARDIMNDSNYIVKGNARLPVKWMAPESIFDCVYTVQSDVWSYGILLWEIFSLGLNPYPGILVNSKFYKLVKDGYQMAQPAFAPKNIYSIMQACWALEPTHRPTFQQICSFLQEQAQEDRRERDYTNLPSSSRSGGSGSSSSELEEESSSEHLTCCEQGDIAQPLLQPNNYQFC

In [1], `Cn1cc(-n2cnc3c(NCc4nc5cc(Cl)c(Cl)cc5[nH]4)nc(N4CCOCC4)nc32)cn1` displayed a % of control of 8.16%.
With `C=CC(=O)Nc1ccc(C(=O)Nc2[nH]nc3c2CN(C(=O)N[C@H](CN(C)C)c2ccccc2)C3(C)C)cc1`, the % of engagement in [2] is -19.4%.
In [3], `CN(C)C/C=C/C(=O)Nc1ccc(C(=O)N2CCCC(Nc3ncc(Cl)c(-c4c[nH]c5ccccc45)n3)C2)cc1` (configuration not stated) gave a % of control of 70%.
On to `CNC(=O)Nc1ccc(-c2nc(N3CC4CCC(C3)O4)c3cnn(C4CCC5(CC4)OCCO5)c3n2)cc1`, for which the % of control in [4] was found to be 86%.
The compound `Nc1cnc(N2CCc3cc(S(=O)(=O)Nc4c(F)cc(Cl)cc4F)cc(N4CCCC4=O)c32)nc1` [TP-020n] returned a % of control in [5] of 95%.
`CCc1cc(Nc2nccc(-c3c(-c4ccc(OC)c(C(=O)Nc5c(F)cccc5F)c4)nc4ccccn34)n2)c(OC)cc1N1CCC(N2CCN(S(C)(=O)=O)CC2)CC1`: in [6], the % of inhibition stood at 50%.
On to `N#Cc1cccc(-c2c[nH]c3ncnc(N4CCOCC4)c23)c1`, for which the % of inhibition in test [7] is -5%.
For the compound `CCN(CC)CCCCNc1ncc2cc(-c3cc(OC)cc(OC)c3)c(NC(=O)NC(C)(C)C)nc2n1`, the % of control in [8] turned out to be 100%.
As for `COc1cc(C(=O)N2CC[C@@H](O)[C@@H](N)C2)cc2nc(-c3cc4ccccc4n3CC3CC3)n(C)c12`, in test [9], the pXC50 stood at 4.7 M.
Take `C=CC(=O)Nc1cc(-n2c(=O)ccc3cnc4ccc(-c5ccc(NS(C)(=O)=O)cc5)cc4c32)ccc1C`: the % of control in test [10] (at 1 µM) is 100%; in [10] (at 10 µM), 4.9%.
With `COCC(=O)NC/C=C/c1ccc2ncnc(Nc3ccc(Oc4ccc(C)nc4)c(C)c3)c2c1` [CP-724714], the % of control in test [11] was determined as 100%.
